What was measured:
[1] = Solubility of inhibitors/retarders in styrene with and without 4-butoxy-TEMPO; conditions: in 4-butoxy-TEMPO plus styrene, 20° C.
Procedure: Saturated solutions of the inhibitors/retarders phenothiazine and 4-methoxyphenol were prepared in 4-butoxy-TEMPO. These saturated solutions were then added to styrene so that the concentration of each inhibitor/retarder was above the solubility limit for that material in styrene alone.

[2] = Sealed-tube polymerisation inhibition, vinyl acetate monomer; conditions: degassed with nitrogen, 160° C. for 48 hours, inhibitor 25 ppm
Procedure: (§1) The efficacy of various inhibitors was evaluated with respect to the monomers vinyl acetate, acrylonitrile, 2-ethylhexyl acrylate and isoprene. The efficacy of each inhibitor was determined by heating in pure monomer or a solution of monomer in a suitable solvent(s) for a set time and at a known temperature. The storage inhibitor was removed from each monomer by distillation or treatment with neutral silica. In each of the tables below, the amount of polymer generated is expressed as % w/w of the monomer.
In this case, the tubes and solution were degassed with nitrogen prior to sealing and heating at 160° C. for 48 hours.

[3] = Continuous stirred tank reactor (CSTR) styrene polymerisation inhibition; conditions: CSTR 110° C., inhibitor 75 ppm; for Polymer level at steady state: nitrogen sparging
Procedure: The evaluation of the efficacy of a selection of nitroxide compounds of the invention was carried out using a continuous stirred tank reactor (CSTR) which mimicked the re-boiler of a styrene distillation column. […] Data gathered after this point was averaged to give the steady state polymer level. Nitrogen sparging to remove oxygen gas was carried out at a measured rate of 200 ml/minute. Apart from the inhibitors, the only variable was the inherent variation in the rate of thermal initiation of styrene polymerisation.

[4] = Tube polymerisation inhibition, acrylonitrile monomer; conditions: 120° C. for 7 days, air not removed, inhibitor 10 ppm
Procedure: as §1
Similarly, tubes containing acrylonitrile and various inhibitors were heated at 120° C. for 7 days. The air was not removed from these solutions prior to heating.

[5] = Tube inhibition time, 2-ethylhexyl acrylate monomer; conditions: 145° C., 5 ppm inhibitor, time to appearance of insoluble polymer
Procedure: as §1
Similarly, tubes containing 5 ppm inhibitor in 2-ethylhexyl acrylate were heated at 145° C. and the results expressed as inhibition time (i.e. the time to appearance of insoluble polymer). Data were generated in nitrogen and in the presence of air.

[6] = Tube polymerisation inhibition, isoprene monomer; conditions: 100 ppm inhibitor, 160° C. for 1 hr
Procedure: as §1
Similarly tubes containing 100 ppm inhibitor in a solution of Isoprene in dimethylformamide containing 1 or 3% furfural were heated at 160° C. for 1 hr. […] The results are expressed as ppm insoluble polymer.

[7] = Solubility in water and toluene (saturated solutions, amount dissolved)

Molecule: c1ccc2c(c1)Nc1ccccc1S2 [Phenothiazine, phenothiazine]
- Soluble amount, Wt % test material (with respect to styrene) [1]: 7.0 Wt %
- Polymer [2]: 35 % w/w

Molecule: C=CCOC1CC(C)(C)N([O])C(C)(C)C1 [4-allyloxy-TEMPO]
- Polymer level (at 120 mins) ([3]; at 120 mins (not steady state)): 15199 (at 120 mins) ppm

Molecule: COC1CC(C)(C)N([O])C(C)(C)C1 [4-methoxy-TEMPO]
- Polymer level at steady state [3]: 172 ppm

Molecule: 4-butoxy-2,2,6,6-tetramethylpiperidine-1-oxide [4-butoxy-TEMPO]
- Polymer [4]: 0.06 % w/w
- Inhibition time in air ([5]; air): 40 min
- Inhibition time in nitrogen ([5]; nitrogen): 350 min
- Insoluble polymer, 1% Furfural ([6]; isoprene in dimethylformamide with 1% furfural): 2.2 ppm
- Insoluble polymer, 3% Furfural ([6]; isoprene in dimethylformamide with 3% furfural): 5.3 ppm
- Polymer level at steady state [3]: 341 ppm
- Polymer [2]: 19 % w/w

Molecule: 4-oxo-2,2,6,6-tetramethylpiperidine-1-oxide [4-oxo-TEMPO]
- Solubility in toluene ([7]; saturated solution in toluene): >80 % wt/wt
- Solubility in water ([7]; saturated solution in water): 22.5 % wt/wt

Molecule: 4-hydroxy-2,2,6,6-tetramethylpiperidine-1-oxide [4-hydroxy-TEMPO]
- Polymer [4]: 0.18 % w/w
- Polymer level at steady state [3]: 180 ppm

Molecule: 2,2,6,6-tetramethylpiperidine-1-oxide [TEMPO]
- Polymer level at steady state [3]: 213 ppm

Source: US20100168434A1, “INHIBITION OF POLYMERISATION” (priority 2005, published 2010)
